Data taken from patent publication US9637491B2, “Pyrazolo[4,3-D]pyrimidines as kinase inhibitors” (Origenis GmbH, priority 2012, dated 2017).

Target: T1, SYK kinase (Homo sapiens, UniProt P43405)
T1 construct: purchased Invitrogen, Carlsbad
Assay: SYK assay (OMNIA Kinase Assay, Invitrogen)
Assay type: biochemical
Settings: SYK Activities; 1 mM ATP, 10 μM Omnia Peptide Substrate Tyr 7, 30° C.
In short: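 SYK was added last to start phosphorylation of a chelation-enhanced SOX peptide substrate (10 μM) in the presence of 1 mM ATP and 0.2 mM DTT at 30° C. Kinetic readings at λex 360/λem 485 nm over 30 min gave velocities, fitted sigmoidally against compound concentration to give IC50.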

| IC50 | Compound |
| --- | --- |
| 10 to 100 nM | c1cc(N2CCOCC2)ccc1Nc1nc(-c2ccc3[nH]ncc3c2)nc2cn[nH]c12 [Example 179, 5-(1H-indazol-5-yl)-N-(4-morpholinophenyl)-1H-pyrazolo[4,3-d]pyrimidin-7-amine] |
| 100 to 1000 nM | Cc1nn(C2CCOCC2)cc1Nc1nc(-c2ccoc2)nc2cn[nH]c12 [Example 294, 5-(furan-3-yl)-N-(3-methyl-1-(tetrahydro-2H-pyran-4-yl)-1H-pyrazol-4-yl)-1H-pyrazolo[4,3-d]pyrimidin-7-amine] |
| 10 to 100 nM | CC(C)n1cc(Nc2nc(-c3cnn(C)c3)nc3cn[nH]c23)cn1 [Example 420, N-(1-isopropyl-1H-pyrazol-4-yl)-5-(1-methyl-1H-pyrazol-4-yl)-1H-pyrazolo[4,3-d]pyrimidin-7-amine] |
| 100 to 1000 nM | COCCn1cc(Nc2nc(C3CC3)nc3cn[nH]c23)cn1 [Example 194, 5-cyclopropyl-N-(1-(2-methoxyethyl)-1H-pyrazol-4-yl)-1H-pyrazolo[4,3-d]pyrimidin-7-amine] |
| 10 to 100 nM | CN1CCC(n2cc(Nc3nc(-c4cnn(C)c4)nc4cn[nH]c34)cn2)CC1 [Example 190, 5-(1-methyl-1H-pyrazol-4-yl)-N-(1-(1-methylpiperidin-4-yl)-1H-pyrazol-4-yl)-1H-pyrazolo[4,3-d]pyrimidin-7-amine] |
| 100 to 1000 nM | CC1(c2nc(Nc3ccc(N4CCOCC4)cc3)c3[nH]ncc3n2)CC1 [Example 99, 5-(1-methylcyclopropyl)-N-(4-morpholinophenyl)-1H-pyrazolo[4,3-d]pyrimidin-7-amine] |
| 100 to 1000 nM | CN1CCN(c2ccc(Nc3nc(-c4ccoc4)nc4cn[nH]c34)cn2)CC1 [Example 108, 5-(furan-3-yl)-N-(6-(4-methylpiperazin-1-yl)pyridin-3-yl)-1H-pyrazolo[4,3-d]pyrimidin-7-amine] |
| 100 to 1000 nM | CCN1C(=O)COc2ccc(Nc3nc(-c4ccoc4)nc4cn[nH]c34)cc21 [Example 485, 4-ethyl-6-((5-(furan-3-yl)-1H-pyrazolo[4,3-d]pyrimidin-7-yl)amino)-2H-benzo[b][1,4]oxazin-3(4H)-one] |
| < 10 nM | c1nn(C2CCOCC2)cc1Nc1nc(-c2ccc3cn[nH]c3c2)nc2cn[nH]c12 [Example 134, 5-(1H-indazol-6-yl)-N-(1-(tetrahydro-2H-pyran-4-yl)-1H-pyrazol-4-yl)-1H-pyrazolo[4,3-d]pyrimidin-7-amine] |
| 100 to 1000 nM | Cc1c(Nc2nc(-c3ccoc3)nc3cn[nH]c23)cnn1C1CCOCC1 [Example 295, 5-(furan-3-yl)-N-(5-methyl-1-(tetrahydro-2H-pyran-4-yl)-1H-pyrazol-4-yl)-1H-pyrazolo[4,3-d]pyrimidin-7-amine] |
| 100 to 1000 nM | O=C(C1CC1)N1CCCc2ccc(Nc3nc(C4CC4)nc4cn[nH]c34)cc21 [Example 503, cyclopropyl(7-((5-cyclopropyl-1H-pyrazolo[4,3-d]pyrimidin-7-yl)amino)-3,4-dihydroquinolin-1(2H)-yl)methanone] |
| 10 to 100 nM | FCCn1cc(Nc2nc(-c3ccco3)nc3cn[nH]c23)cn1 [Example 367, N-(1-(2-fluoroethyl)-1H-pyrazol-4-yl)-5-(furan-2-yl)-1H-pyrazolo[4,3-d]pyrimidin-7-amine] |
| 10 to 100 nM | CC(C)Cn1cc(Nc2nc(-c3ccc4cn[nH]c4c3)nc3cn[nH]c23)cn1 [Example 423, 5-(1H-indazol-6-yl)-N-(1-isobutyl-1H-pyrazol-4-yl)-1H-pyrazolo[4,3-d]pyrimidin-7-amine] |
| 100 to 1000 nM | COc1ccc(Nc2nc(-c3cccc(C(=O)Nc4ccc(-c5cnco5)cc4)c3)nc3cn[nH]c23)cc1OC [Example 319, 3-(7-((3,4-dimethoxyphenyl)amino)-1H-pyrazolo[4,3-d]pyrimidin-5-yl)-N-(4-(oxazol-5-yl)phenyl)benzamide] |
| 10 to 100 nM | CC(C)Cn1cc(Nc2nc(-c3ccco3)nc3cn[nH]c23)cn1 [Example 238, 5-(furan-2-yl)-N-(1-isobutyl-1H-pyrazol-4-yl)-1H-pyrazolo[4,3-d]pyrimidin-7-amine] |
| 100 to 1000 nM | CC(C)Cn1cc(Nc2nc(-c3c(F)cccc3F)nc3cn[nH]c23)cn1 [Example 440, 5-(2,6-difluorophenyl)-N-(1-isobutyl-1H-pyrazol-4-yl)-1H-pyrazolo[4,3-d]pyrimidin-7-amine] |
| 100 to 1000 nM | CC(=O)N1CCN(c2ccc(Nc3nc(-c4ccno4)nc4cn[nH]c34)cc2)CC1 [Example 67, 1-(4-(4-((5-(isoxazol-5-yl)-1H-pyrazolo[4,3-d]pyrimidin-7-yl)amino)phenyl)piperazin-1-yl)ethan-1-one] |

Second part, the compound before the results:

| Compound | IC50 |
| --- | --- |
| CC(=O)N1CCN(c2ccc(Nc3nc(C4(C)CC4)nc4cn[nH]c34)cc2)CC1 [Example 100, 1-(4-(4-((5-(1-methylcyclopropyl)-1H-pyrazolo[4,3-d]pyrimidin-7-yl)amino)phenyl)piperazin-1-yl)ethan-1-one] | 100 to 1000 nM |
| CC(C)(C)n1cc(Nc2nc(-c3cocn3)nc3cn[nH]c23)cn1 [Example 243, N-(1-(tert-butyl)-1H-pyrazol-4-yl)-5-(oxazol-4-yl)-1H-pyrazolo[4,3-d]pyrimidin-7-amine] | 10 to 100 nM |
| COCCCn1cc(Nc2nc(C(C)(C)C)nc3cn[nH]c23)cn1 [Example 270, 5-(tert-butyl)-N-(1-(3-methoxypropyl)-1H-pyrazol-4-yl)-1H-pyrazolo[4,3-d]pyrimidin-7-amine] | 100 to 1000 nM |
| CC(=O)N1CCN(c2ccc(Nc3nc(C4CC4)nc4cn[nH]c34)cc2)CC1 [Example 33, 1-(4-(4-((5-cyclopropyl-1H-pyrazolo[4,3-d]pyrimidin-7-yl)amino)phenyl)piperazin-1-yl)ethan-1-one] | 100 to 1000 nM |
| CN1CCC(n2cc(Nc3nc(-c4cccc(NS(C)(=O)=O)c4)nc4cn[nH]c34)cn2)CC1 [Example 264, N-(3-(7-((1-(1-methylpiperidin-4-yl)-1H-pyrazol-4-yl)amino)-1H-pyrazolo[4,3-d]pyrimidin-5-yl)phenyl)methanesulfonamide] | 10 to 100 nM |
| COCCCn1cc(Nc2nc(-c3ccc4cn[nH]c4c3)nc3cn[nH]c23)cn1 [Example 419, 5-(1H-indazol-6-yl)-N-(1-(3-methoxypropyl)-1H-pyrazol-4-yl)-1H-pyrazolo[4,3-d]pyrimidin-7-amine] | 10 to 100 nM |
| c1cc(-c2nc(Nc3ccc(N4CCOCC4)cc3)c3[nH]ncc3n2)co1 [Example 94, 5-(furan-3-yl)-N-(4-morpholinophenyl)-1H-pyrazolo[4,3-d]pyrimidin-7-amine] | 10 to 100 nM |
| O=C(c1ccc(Nc2nc(C3CC3)nc3cn[nH]c23)cc1F)N1CCOCC1 [Example 208, (4-((5-cyclopropyl-1H-pyrazolo[4,3-d]pyrimidin-7-yl)amino)-2-fluorophenyl)(morpholino)methanone] | 100 to 1000 nM |
| c1cc(N2CCOCC2)ccc1Nc1nc(C2COCCO2)nc2cn[nH]c12 (centres unmarked) [Example 84, 5-(1,4-dioxan-2-yl)-N-(4-morpholinophenyl)-1H-pyrazolo[4,3-d]pyrimidin-7-amine] | 100 to 1000 nM |
| c1coc(-c2nc(Nc3cnn(C4CC4)c3)c3[nH]ncc3n2)c1 [Example 278, N-(1-cyclopropyl-1H-pyrazol-4-yl)-5-(furan-2-yl)-1H-pyrazolo[4,3-d]pyrimidin-7-amine] | 10 to 100 nM |
| Cc1c(Nc2nc(C3CCC3)nc3cn[nH]c23)cnn1C(C)C [Example 325, 5-cyclobutyl-N-(1-isopropyl-5-methyl-1H-pyrazol-4-yl)-1H-pyrazolo[4,3-d]pyrimidin-7-amine] | 100 to 1000 nM |
| CC(=O)N1CCN(c2ccc(Nc3nc(-c4ccoc4)nc4cn[nH]c34)cc2)CC1 [Example 96, 1-(4-(4-((5-(furan-3-yl)-1H-pyrazolo[4,3-d]pyrimidin-7-yl)amino)phenyl)piperazin-1-yl)ethan-1-one] | 10 to 100 nM |
| O=C1COc2ccc(Nc3nc(-c4ccc5cn[nH]c5c4)nc4cn[nH]c34)cc2N1 [Example 519, 6-((5-(1H-indazol-6-yl)-1H-pyrazolo[4,3-d]pyrimidin-7-yl)amino)-2H-benzo[b][1,4]oxazin-3(4H)-one] | < 10 nM |
| CC(C)(C)n1cc(Nc2nc(-c3ccoc3)nc3cn[nH]c23)cn1 [Example 218, N-(1-(tert-butyl)-1H-pyrazol-4-yl)-5-(furan-3-yl)-1H-pyrazolo[4,3-d]pyrimidin-7-amine] | 10 to 100 nM |
| c1nc(-c2nc(Nc3ccc(N4CCOCC4)cc3)c3[nH]ncc3n2)co1 [Example 48, N-(4-morpholinophenyl)-5-(oxazol-4-yl)-1H-pyrazolo[4,3-d]pyrimidin-7-amine] | 100 to 1000 nM |
| c1nn(C2CCOCC2)cc1Nc1nc(-c2nc3c(s2)CCCC3)nc2cn[nH]c12 [Example 496, N-(1-(tetrahydro-2H-pyran-4-yl)-1H-pyrazol-4-yl)-5-(4,5,6,7-tetrahydrobenzo[d]thiazol-2-yl)-1H-pyrazolo[4,3-d]pyrimidin-7-amine] | 10 to 100 nM |
| CC(C)(C)N1CCN(c2ccc(Nc3nc(-c4ccoc4)nc4cn[nH]c34)cc2)CC1 [Example 97, N-(4-(4-(tert-butyl)piperazin-1-yl)phenyl)-5-(furan-3-yl)-1H-pyrazolo[4,3-d]pyrimidin-7-amine] | 10 to 100 nM |
| O=C1COc2ccc(Nc3nc(C4CC4)nc4cn[nH]c34)cc2N1 [Example 21, 6-((5-cyclopropyl-1H-pyrazolo[4,3-d]pyrimidin-7-yl)amino)-2H-benzo[b][1,4]oxazin-3(4H)-one] | 10 to 100 nM |
| CS(=O)(=O)Nc1cccc(-c2nc(Nc3ccc4c(c3)NC(=O)CCC4)c3[nH]ncc3n2)c1 [Example 529, N-(3-(7-((2-oxo-2,3,4,5-tetrahydro-1H-benzo[b]azepin-8-yl)amino)-1H-pyrazolo[4,3-d]pyrimidin-5-yl)phenyl)methanesulfonamide] | 100 to 1000 nM |
| COCCn1cc(Nc2nc(-c3ncco3)nc3cn[nH]c23)cn1 [Example 256, N-(1-(2-methoxyethyl)-1H-pyrazol-4-yl)-5-(oxazol-2-yl)-1H-pyrazolo[4,3-d]pyrimidin-7-amine] | 100 to 1000 nM |
| Oc1ccccc1Nc1nc(-c2ccc3cn[nH]c3c2)nc2cn[nH]c12 [Example 506, 2-((5-(1H-indazol-6-yl)-1H-pyrazolo[4,3-d]pyrimidin-7-yl)amino)phenol] | 100 to 1000 nM |
